According to ChEMBL document CHEMBL2086270, “Rational Design, Synthesis, and SAR of a Novel Thiazolopyrimidinone Series of Selective PI3K-beta Inhibitors” (ACS Med Chem Lett, 2012):
Calls of active or inactive are those of the source. No cut-off for these calls is given here.

Columns and labels:
[1] = biological target: T1, Phosphatidylinositol 4,5-bisphosphate 3-kinase catalytic subunit beta isoform (Homo sapiens, UniProt P42338); experiment: Inhibition of PI3K beta by continuous TR-FRET assay
T1 sequence (P42338 whole entry, canonical isoform): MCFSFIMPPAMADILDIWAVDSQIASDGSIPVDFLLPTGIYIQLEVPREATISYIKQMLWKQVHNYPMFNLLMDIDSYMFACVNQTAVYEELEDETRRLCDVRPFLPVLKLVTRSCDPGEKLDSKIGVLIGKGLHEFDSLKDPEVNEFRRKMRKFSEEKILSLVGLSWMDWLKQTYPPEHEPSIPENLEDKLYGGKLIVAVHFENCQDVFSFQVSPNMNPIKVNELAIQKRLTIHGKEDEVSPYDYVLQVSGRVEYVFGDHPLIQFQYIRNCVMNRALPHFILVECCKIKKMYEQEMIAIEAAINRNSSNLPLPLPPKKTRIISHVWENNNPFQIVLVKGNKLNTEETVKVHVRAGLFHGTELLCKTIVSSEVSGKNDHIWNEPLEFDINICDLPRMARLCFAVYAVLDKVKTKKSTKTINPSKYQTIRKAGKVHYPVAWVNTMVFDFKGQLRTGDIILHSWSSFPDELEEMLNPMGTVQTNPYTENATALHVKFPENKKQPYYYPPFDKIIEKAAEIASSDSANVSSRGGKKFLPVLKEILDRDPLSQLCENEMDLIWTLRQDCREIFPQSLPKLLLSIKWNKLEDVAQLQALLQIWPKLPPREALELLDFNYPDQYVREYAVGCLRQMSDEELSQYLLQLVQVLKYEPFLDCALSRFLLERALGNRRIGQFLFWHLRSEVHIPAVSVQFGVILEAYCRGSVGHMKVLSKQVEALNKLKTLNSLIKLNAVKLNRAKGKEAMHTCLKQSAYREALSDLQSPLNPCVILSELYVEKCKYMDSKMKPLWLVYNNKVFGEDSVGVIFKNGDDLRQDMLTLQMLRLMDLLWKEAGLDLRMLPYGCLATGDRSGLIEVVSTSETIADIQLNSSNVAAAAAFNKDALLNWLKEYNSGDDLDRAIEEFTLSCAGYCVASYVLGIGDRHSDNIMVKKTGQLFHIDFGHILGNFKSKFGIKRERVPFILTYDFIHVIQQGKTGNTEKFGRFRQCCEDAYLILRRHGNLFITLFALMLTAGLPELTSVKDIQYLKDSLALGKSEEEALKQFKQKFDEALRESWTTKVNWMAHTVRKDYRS

Mus musculus [2] = experiment: Inhibition of PI3K beta in human PTEN-deficient PC3 cells xenografted in nude mouse assessed as inhibition of AKT Ser473 phosphorylation at 100 mg/kg at 2 hrs; type: functional; details: PC-3, 2 h
Nucleic Acid = experiment: Ratio of drug uptake in tumor at 300 mg/kg to drug uptake in tumor at 100 mg/kg in nude mouse bearing PC3 cells; type: functional, organism-based; details: Neoplasm, PC-3
Mus musculus [3] = experiment: Inhibition of PI3K beta in human PTEN-deficient PC3 cells xenografted in nude mouse assessed as inhibition of AKT Ser473 phosphorylation at 100 mg/kg at 8 hrs; type: functional; details: PC-3, 8 h
[4] = biological target: Phosphatidylinositol 4,5-bisphosphate 3-kinase catalytic subunit alpha isoform (Homo sapiens, UniProt P42336); experiment: Inhibition of PI3K alpha by continuous TR-FRET assay
Sequence of Phosphatidylinositol 4,5-bisphosphate 3-kinase catalytic subunit alpha isoform (P42336 whole entry, canonical isoform): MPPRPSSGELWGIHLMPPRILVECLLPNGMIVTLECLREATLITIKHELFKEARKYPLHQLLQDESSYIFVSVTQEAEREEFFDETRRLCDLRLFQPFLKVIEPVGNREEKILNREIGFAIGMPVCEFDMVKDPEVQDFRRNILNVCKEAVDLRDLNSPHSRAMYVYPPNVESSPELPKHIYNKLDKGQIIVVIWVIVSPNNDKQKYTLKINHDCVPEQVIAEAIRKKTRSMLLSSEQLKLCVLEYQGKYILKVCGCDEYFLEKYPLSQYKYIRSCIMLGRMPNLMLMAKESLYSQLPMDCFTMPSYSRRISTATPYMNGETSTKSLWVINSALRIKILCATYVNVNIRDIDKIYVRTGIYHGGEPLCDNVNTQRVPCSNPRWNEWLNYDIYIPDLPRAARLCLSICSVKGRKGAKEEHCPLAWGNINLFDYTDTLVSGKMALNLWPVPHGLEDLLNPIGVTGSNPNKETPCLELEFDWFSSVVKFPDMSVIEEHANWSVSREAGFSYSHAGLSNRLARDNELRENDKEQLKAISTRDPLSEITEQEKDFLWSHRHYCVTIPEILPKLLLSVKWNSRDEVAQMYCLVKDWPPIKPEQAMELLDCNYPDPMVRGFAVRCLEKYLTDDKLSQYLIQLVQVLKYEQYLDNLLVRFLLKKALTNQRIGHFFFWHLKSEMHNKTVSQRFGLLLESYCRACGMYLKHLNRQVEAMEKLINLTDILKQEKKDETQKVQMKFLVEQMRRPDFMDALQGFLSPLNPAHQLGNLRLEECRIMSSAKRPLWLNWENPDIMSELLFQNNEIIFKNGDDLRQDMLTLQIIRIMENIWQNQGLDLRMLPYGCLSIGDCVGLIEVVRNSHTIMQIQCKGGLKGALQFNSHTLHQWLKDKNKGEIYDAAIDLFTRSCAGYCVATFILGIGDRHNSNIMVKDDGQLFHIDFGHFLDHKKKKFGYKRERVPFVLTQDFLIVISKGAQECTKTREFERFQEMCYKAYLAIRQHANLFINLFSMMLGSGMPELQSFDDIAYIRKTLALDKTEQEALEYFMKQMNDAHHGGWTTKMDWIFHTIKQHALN

Blood = experiment: Ratio of drug uptake in blood at 300 mg/kg to drug uptake in blood at 100 mg/kg in nude mouse bearing PC3 cells; type: functional, PC-3
[5] = biological target: T2, Phosphatidylinositol 4,5-bisphosphate 3-kinase catalytic subunit delta isoform (Homo sapiens, UniProt O00329); experiment: Inhibition of PI3K delta by continuous TR-FRET assay
T2 sequence (O00329 whole entry): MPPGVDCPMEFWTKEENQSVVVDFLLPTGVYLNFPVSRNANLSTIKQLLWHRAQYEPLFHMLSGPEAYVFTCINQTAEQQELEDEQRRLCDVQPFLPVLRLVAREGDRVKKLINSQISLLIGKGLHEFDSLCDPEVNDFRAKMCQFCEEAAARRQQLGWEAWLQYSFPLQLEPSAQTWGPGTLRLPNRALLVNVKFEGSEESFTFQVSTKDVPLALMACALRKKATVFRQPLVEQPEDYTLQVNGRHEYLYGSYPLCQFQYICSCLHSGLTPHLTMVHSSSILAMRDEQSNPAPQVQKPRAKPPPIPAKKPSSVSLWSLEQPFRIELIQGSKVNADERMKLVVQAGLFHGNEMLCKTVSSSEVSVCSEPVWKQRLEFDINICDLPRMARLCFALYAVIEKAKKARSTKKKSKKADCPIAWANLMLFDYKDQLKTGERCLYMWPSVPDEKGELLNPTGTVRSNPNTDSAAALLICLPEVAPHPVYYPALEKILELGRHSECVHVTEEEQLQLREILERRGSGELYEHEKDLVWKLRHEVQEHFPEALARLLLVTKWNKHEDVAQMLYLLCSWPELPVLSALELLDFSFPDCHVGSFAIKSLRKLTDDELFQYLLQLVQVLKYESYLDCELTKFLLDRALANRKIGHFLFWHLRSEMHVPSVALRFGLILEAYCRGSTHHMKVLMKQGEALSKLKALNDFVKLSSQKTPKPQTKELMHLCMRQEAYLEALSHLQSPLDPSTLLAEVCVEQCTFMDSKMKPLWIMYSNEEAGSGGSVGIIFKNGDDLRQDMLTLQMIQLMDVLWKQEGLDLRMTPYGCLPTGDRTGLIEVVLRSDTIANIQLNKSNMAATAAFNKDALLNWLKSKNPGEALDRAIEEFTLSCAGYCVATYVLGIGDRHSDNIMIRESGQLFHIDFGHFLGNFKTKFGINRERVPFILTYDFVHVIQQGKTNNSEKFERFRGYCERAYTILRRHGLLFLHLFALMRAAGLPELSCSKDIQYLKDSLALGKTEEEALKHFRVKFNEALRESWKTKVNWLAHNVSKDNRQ

[6] = Half life in CD mouse at 0.3 mg/kg, iv; type: ADME, organism-based; set-up: dose 0.3 mg/kg, route intravenous; details: in vivo
[7] = biological target: T1, Phosphatidylinositol 4,5-bisphosphate 3-kinase catalytic subunit beta isoform; experiment: Inhibition of PI3K beta in human PTEN-deficient MDA-MB-468 cells assessed as inhibition of Akt Ser473 phosphorylation; type: cell-based
[8] = Volume of distribution at steady state in CD mouse at 0.3 mg/kg, iv; type: ADME, organism-based; set-up: dose 0.3 mg/kg, route intravenous; details: in vivo, read-out: Vdss
Mus musculus [9] = experiment: Inhibition of PI3K beta in human PTEN-deficient PC3 cells xenografted in nude mouse assessed as inhibition of AKT Ser473 phosphorylation at 300 mg/kg at 2 hrs; type: functional; details: PC-3, 2 h
Mus musculus [10] = experiment: Inhibition of PI3K beta in human PTEN-deficient PC3 cells xenografted in nude mouse assessed as inhibition of AKT Ser473 phosphorylation at 100 mg/kg at 6 hrs; type: functional; details: PC-3, 6 h
PC-3 = experiment: Antitumor activity against human PC3 cells xenografted in nude mouse assessed as tumor growth inhibition at 100 and 300 mg/kg administered QD for 21 days relative to vehicle-treated control; type: functional, organism-based; set-up: dose 300 mg/kg
Mus musculus [11] = experiment: Inhibition of PI3K beta in human PTEN-deficient PC3 cells xenografted in nude mouse assessed as inhibition of AKT Ser473 phosphorylation at 300 mg/kg at 4 hrs; type: functional; details: PC-3, 4 h
Mus musculus [12] = experiment: Inhibition of PI3K beta in human PTEN-deficient PC3 cells xenografted in nude mouse assessed as inhibition of AKT Ser473 phosphorylation at 300 mg/kg at 6 hrs; type: functional; details: PC-3, 6 h
Mus musculus [13] = experiment: Inhibition of PI3K beta in human PTEN-deficient PC3 cells xenografted in nude mouse assessed as inhibition of AKT Ser473 phosphorylation at 300 mg/kg at 10 hrs; type: functional; details: PC-3, 10 h
Mus musculus [14] = experiment: Toxicity in nude mouse xenografted with human PC3 cells assessed as body weight loss at 100 and 300 mg/kg administered QD for 21 days; type: organism-based, PC-3; set-up: dose 300 mg/kg; details: in vivo, 504 h
Mus musculus [15] = experiment: Inhibition of PI3K beta in human PTEN-deficient PC3 cells xenografted in nude mouse assessed as inhibition of AKT Ser473 phosphorylation at 100 mg/kg at 24 hrs; type: functional; details: PC-3, 24 h
Mus musculus [16] = experiment: Inhibition of PI3K beta in human PTEN-deficient PC3 cells xenografted in nude mouse assessed as inhibition of AKT Ser473 phosphorylation at 300 mg/kg at 24 hrs; type: functional; details: PC-3, 24 h
MDA-MB-468 = experiment: Antiproliferative activity against PTEN-deficient human MDA-MB-468 cells; type: functional
Mus musculus [17] = experiment: Inhibition of PI3K beta in human PTEN-deficient PC3 cells xenografted in nude mouse assessed as inhibition of AKT Ser473 phosphorylation at 100 mg/kg at 4 hrs; type: functional; details: PC-3, 4 h
Mus musculus [18] = experiment: Inhibition of PI3K beta in human PTEN-deficient PC3 cells xenografted in nude mouse assessed as inhibition of AKT Ser473 phosphorylation at 100 and 300 mg/kg; type: functional, organism-based; set-up: dose 300 mg/kg; details: PC-3, TDE = time-dependent effect
Mus musculus [19] = experiment: Dose normalized AUC in CD mouse at 100 mg/kg, po; type: ADME, organism-based; set-up: dose 100 mg/kg, route oral; details: in vivo
Mus musculus [20] = experiment: Inhibition of PI3K beta in human PTEN-deficient PC3 cells xenografted in nude mouse assessed as inhibition of AKT Ser473 phosphorylation at 100 mg/kg at 10 hrs; type: functional; details: PC-3, 10 h
Mus musculus [21] = experiment: Inhibition of PI3K beta in human PTEN-deficient PC3 cells xenografted in nude mouse assessed as inhibition of AKT Ser473 phosphorylation at 300 mg/kg at 8 hrs; type: functional; details: PC-3, 8 h
[22] = biological target: Phosphatidylinositol 4,5-bisphosphate 3-kinase catalytic subunit gamma isoform (Homo sapiens, UniProt P48736); experiment: Inhibition of PI3K gamma by continuous TR-FRET assay
Sequence of Phosphatidylinositol 4,5-bisphosphate 3-kinase catalytic subunit gamma isoform (P48736 whole entry, canonical isoform): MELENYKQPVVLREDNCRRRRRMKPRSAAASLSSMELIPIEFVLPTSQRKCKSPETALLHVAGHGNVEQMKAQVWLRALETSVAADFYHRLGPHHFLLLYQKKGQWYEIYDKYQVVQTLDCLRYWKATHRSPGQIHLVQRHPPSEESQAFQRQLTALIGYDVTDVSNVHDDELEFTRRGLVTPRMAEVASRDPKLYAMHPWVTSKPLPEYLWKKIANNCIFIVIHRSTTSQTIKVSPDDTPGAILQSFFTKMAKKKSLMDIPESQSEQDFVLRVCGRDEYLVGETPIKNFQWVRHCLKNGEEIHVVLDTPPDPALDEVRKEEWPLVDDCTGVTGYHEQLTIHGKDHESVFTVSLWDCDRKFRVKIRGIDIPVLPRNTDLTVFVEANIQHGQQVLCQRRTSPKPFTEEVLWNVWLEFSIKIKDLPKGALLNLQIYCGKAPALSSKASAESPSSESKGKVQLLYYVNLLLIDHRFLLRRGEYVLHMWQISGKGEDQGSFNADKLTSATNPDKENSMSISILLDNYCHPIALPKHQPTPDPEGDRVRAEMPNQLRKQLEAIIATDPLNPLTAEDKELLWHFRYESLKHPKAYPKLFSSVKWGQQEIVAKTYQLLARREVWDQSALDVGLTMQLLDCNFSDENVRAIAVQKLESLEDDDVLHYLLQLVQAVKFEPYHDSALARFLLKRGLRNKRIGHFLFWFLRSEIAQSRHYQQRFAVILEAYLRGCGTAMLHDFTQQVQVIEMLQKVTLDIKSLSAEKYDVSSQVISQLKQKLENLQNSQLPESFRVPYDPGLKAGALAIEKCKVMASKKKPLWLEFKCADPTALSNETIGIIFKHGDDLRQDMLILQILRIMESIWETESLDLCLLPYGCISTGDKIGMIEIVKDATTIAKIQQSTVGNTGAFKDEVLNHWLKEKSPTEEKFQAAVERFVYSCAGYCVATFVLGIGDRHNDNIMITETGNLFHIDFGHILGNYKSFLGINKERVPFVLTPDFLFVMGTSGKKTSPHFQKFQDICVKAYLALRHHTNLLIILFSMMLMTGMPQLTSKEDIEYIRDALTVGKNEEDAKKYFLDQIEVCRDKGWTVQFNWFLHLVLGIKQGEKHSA

Mus musculus [23] = experiment: Inhibition of PI3K beta in human PTEN-deficient PC3 cells xenografted in nude mouse assessed as inhibition of AKT Ser473 phosphorylation at 300 mg/kg at 1 hr; type: functional; details: PC-3, 1 h
[24] = Clearance in CD mouse at 0.3 mg/kg, iv; type: ADME, organism-based; set-up: dose 0.3 mg/kg, route intravenous; details: in vivo
Mus musculus [25] = experiment: Inhibition of PI3K beta in human PTEN-deficient PC3 cells xenografted in nude mouse assessed as inhibition of AKT Ser473 phosphorylation at 100 mg/kg at 1 hr; type: functional; details: PC-3, 1 h
[26] = Oral bioavailability in CD mouse at 100 mg/kg; type: ADME, organism-based; details: in vivo

## Cc1c(Cn2c(C)nc(=O)c3sc(N4CCOCC4)nc32)cccc1C(F)(F)F
[1]
  IC50: 0.6 nM
Mus musculus [2]
  inhibition in vivo at 100 mg/kg: 53%
Nucleic Acid
  Ratio: 1.2
Mus musculus [3]
  inhibition in vivo at 100 mg/kg: 46%
[4]
  IC50: 2500 nM
Blood
  Ratio: 1.2
[5]
  IC50: 20 nM
[6]
  half-life: 1.2 h
[7]
  EC50: 24 nM
[8]
  Vd: 2.8 L/kg
Mus musculus [9]
  inhibition in vivo at 300 mg/kg: 72%
Mus musculus [10]
  inhibition in vivo at 100 mg/kg: 64%
PC-3
  TGI: Active
Mus musculus [11]
  inhibition in vivo at 300 mg/kg: 63%
Mus musculus [12]
  inhibition in vivo at 300 mg/kg: 64%
Mus musculus [13]
  inhibition in vivo at 300 mg/kg: 24%
Mus musculus [14]
  Activity: Non-toxic
Mus musculus [15]
  inhibition in vivo at 100 mg/kg: -17%
Mus musculus [16]
  inhibition in vivo at 300 mg/kg: -1%
MDA-MB-468
  GI50: 103 nM
Mus musculus [17]
  inhibition in vivo at 100 mg/kg: 58%
Mus musculus [18]
  inhibition: tde
Mus musculus [19]
  AUC/dose: 278 ng/(hr.mL.mg.kg)
Mus musculus [20]
  inhibition in vivo at 100 mg/kg: 33%
Mus musculus [21]
  inhibition in vivo at 300 mg/kg: 48%
[22]
  IC50: 790 nM
Mus musculus [23]
  inhibition in vivo at 300 mg/kg: 68%
[24]
  clearance: 29.6 mL/min/kg
Mus musculus [25]
  inhibition in vivo at 100 mg/kg: 63%
[26]
  bioavailability: 49%
